Patent US20250026750A1, “SULFOXIMINE-CONTAINING ATR INHIBITOR COMPOUND” (Chia Tai Tianqing Pharmaceutical Group Co., Ltd., priority 2021, published 2025)

Tests used:
ATR kinase = ATR kinase (Homo sapiens (Human), UniProt Q13535); test: Screening for in vitro inhibitory activity against ATR kinase; format: biochemical; settings: 10 μM ATP, 0.1 μM U Light-poly GT substrate
Description: A 50 ng/μL ATR stock solution was diluted with a kinase buffer (50 mM HEPES, 10 mM MgCl2, 2 mM DTT, 1 mM EGTA, 0.01% Tween 20), and 6 μL of 1.67×, 0.0835 ng/μL working solution was added to each well (final concentration: 0.05 ng/μL). Different compounds dissolved in DMSO were added to wells using a nanoliter pipettor, such that the final concentrations of the compounds were 1000 nM-0.24 nM and the concentrations in positive wells were 100 nM-0.024 nM (4-fold gradient, 7 concentrations in total). Meanwhile, a blank control well (containing no enzyme) and a negative control well (containing enzyme, with the vehicle DMSO added) were set. After the enzyme had reacted with the compound or vehicle for 30 min, a 5×, 50 μM ATP (final concentration: 10 μM) prepared with the kinase buffer and a 5×, 0.5 μM substrate (final concentration: 0.1 μM, U Light-poly GT) were 1:1 mixed, and the mixture was added to wells at 4 μL/well. After the plate was sealed with a sealing film and the plate was incubated at room temperature for 2 h, 5 μL of 4×, 40 mM EDTA (final concentration: 10 mM) was added to each well. After 5 min of incubation at room temperature, 5 μL of a 4×, 8 nM assay reagent (final concentration: 2 nM, Ep-anti-phospho-tyrosine antibody) was added to each well. The plate was incubated at room temperature for 1 h. Plate reading was performed on a PE instrument (excitation: 320 or 340 nm; emission: 665 nm), and four-parameter fitting and IC50 calculations were performed. The results are shown in Table 1, where A represents IC50<50 nM.

TMD-8 cells = test: Assay for inhibitory activity on TMD-8 cell proliferation (CCK-8); format: cell-based
Description: TMD-8 cells in a good growth state were collected into a centrifuge tube, adjusted to a cell density of 4×10^4 cells/mL, and inoculated onto a 96-well plate (100 μL/well), and the plate was incubated overnight in a cell incubator. Compounds were added using a nanoliter pipettor such that the final concentrations of the compounds were 10,000 nM-4.57 nM (the addition was performed in duplicate). Meanwhile, a control was set. After another 72 h of incubation in the cell incubator, the assay reagent CCK-8 (manufacturer: Dojindo Laboratories; 10 μL/well) was added. After 4 h of incubation in the cell incubator, absorbance was measured at 450 nm on an Envision microplate reader. A four-parameter analysis was performed, a dose-response curve was fit, and IC50 was calculated. The results are shown in Table 2, where A represents IC50≤200 nM.

[1] = In vitro liver microsomal stability; format: in vitro ADME; settings: human liver microsomes, NADPH, 37° C.
Description: A 200-μL final incubation system contained 20 μL of liver microsomes (protein concentration: 5 mg/mL), 20 μL of NADPH+MgCl2, 2 μL of a substrate, and 158 μL of PBS buffer. The proportion of the organic solvent was 1%. The assay was performed in duplicate (0.2 mL each) for each species. A 180-μL mixture of substrate and enzyme was prepared in each tube. After the mixture and NADPH were pre-incubated at 37° C. for 5 min, 20 μL of NADPH+MgCl2 was added and mixed. 50-μL samples were taken at 0, 15 and 60 min, and the reactions were stopped using ice-cold acetonitrile containing an internal standard.
50-μL incubated samples were taken, and 300 μL of internal standard-containing acetonitrile was added for precipitation. After 5 min of vortexing and shaking, centrifugation (13,000 rpm, 20° C.) was performed for 10 min. 80 μL of the supernatant was added to a 96-well plate and diluted with 80 μL of ultrapure water, and 1 μL of the dilution was injected for LC-MS/MS analysis.

[2] = Pharmacokinetic evaluation of compounds in mice; format: in vivo; settings: ICR mice
Description: ICR mice, weighing 18-22 g, were randomized into 4 groups of 9 after 3-5 days of acclimatization, and were administered intragastrically (IG) a test compound at a dose of 10 mg/kg and intravenously (IV) a test compound at a dose of 1 mg/kg.
The test animals (ICR mice) were fasted for 12 h before the administration and given food 4 h after the administration, and they were given ad libitum access to water before, during and after the experiment.
Orbital blood samples of about 0.1 mL were collected at 15 min, 30 min, 1 h, 2 h, 3 h, 4 h, 6 h, 8 h, 10 h and 24 h after the intragastric administration. Orbital blood samples of about 0.1 mL were collected at 5 min, 10 min, 30 min, 1 h, 2 h, 4 h, 6 h, 8 h, 10 h and 24 h after the intravenous administration. The blood sample collection was performed at 3-4 time points for each mouse, 3 mice/per time point. The collected whole blood was placed in EDTA-K2-containing centrifuge tubes and stored at 4° C., and, within 1 h, was centrifuged at 4° C. at 4000 rpm for 10 min to separate plasma. All plasma samples were collected and immediately stored at −20° C. for testing. 30 μL of a plasma sample to be tested and a standard-curve sample were collected, and 300 μL of an acetonitrile solution containing an internal standard (20 ng/mL diazepam) was added and well mixed by 5 min of shaking. The mixture was centrifuged at 13,000 rpm for 10 min, and 80 µL of the supernatant was collected and diluted with 80 μL of ultrapure water. After well mixing, 2 μL of the dilution was collected for liquid chromatography-mass spectrometry analysis, and pharmacokinetic parameters were calculated.

[3] = Homo sapiens, TMD8, 72 h incubation
[4] = plasma, IG 10 mg/kg / IV 1 mg/kg study

Sequence of ATR kinase (Q13535 whole entry): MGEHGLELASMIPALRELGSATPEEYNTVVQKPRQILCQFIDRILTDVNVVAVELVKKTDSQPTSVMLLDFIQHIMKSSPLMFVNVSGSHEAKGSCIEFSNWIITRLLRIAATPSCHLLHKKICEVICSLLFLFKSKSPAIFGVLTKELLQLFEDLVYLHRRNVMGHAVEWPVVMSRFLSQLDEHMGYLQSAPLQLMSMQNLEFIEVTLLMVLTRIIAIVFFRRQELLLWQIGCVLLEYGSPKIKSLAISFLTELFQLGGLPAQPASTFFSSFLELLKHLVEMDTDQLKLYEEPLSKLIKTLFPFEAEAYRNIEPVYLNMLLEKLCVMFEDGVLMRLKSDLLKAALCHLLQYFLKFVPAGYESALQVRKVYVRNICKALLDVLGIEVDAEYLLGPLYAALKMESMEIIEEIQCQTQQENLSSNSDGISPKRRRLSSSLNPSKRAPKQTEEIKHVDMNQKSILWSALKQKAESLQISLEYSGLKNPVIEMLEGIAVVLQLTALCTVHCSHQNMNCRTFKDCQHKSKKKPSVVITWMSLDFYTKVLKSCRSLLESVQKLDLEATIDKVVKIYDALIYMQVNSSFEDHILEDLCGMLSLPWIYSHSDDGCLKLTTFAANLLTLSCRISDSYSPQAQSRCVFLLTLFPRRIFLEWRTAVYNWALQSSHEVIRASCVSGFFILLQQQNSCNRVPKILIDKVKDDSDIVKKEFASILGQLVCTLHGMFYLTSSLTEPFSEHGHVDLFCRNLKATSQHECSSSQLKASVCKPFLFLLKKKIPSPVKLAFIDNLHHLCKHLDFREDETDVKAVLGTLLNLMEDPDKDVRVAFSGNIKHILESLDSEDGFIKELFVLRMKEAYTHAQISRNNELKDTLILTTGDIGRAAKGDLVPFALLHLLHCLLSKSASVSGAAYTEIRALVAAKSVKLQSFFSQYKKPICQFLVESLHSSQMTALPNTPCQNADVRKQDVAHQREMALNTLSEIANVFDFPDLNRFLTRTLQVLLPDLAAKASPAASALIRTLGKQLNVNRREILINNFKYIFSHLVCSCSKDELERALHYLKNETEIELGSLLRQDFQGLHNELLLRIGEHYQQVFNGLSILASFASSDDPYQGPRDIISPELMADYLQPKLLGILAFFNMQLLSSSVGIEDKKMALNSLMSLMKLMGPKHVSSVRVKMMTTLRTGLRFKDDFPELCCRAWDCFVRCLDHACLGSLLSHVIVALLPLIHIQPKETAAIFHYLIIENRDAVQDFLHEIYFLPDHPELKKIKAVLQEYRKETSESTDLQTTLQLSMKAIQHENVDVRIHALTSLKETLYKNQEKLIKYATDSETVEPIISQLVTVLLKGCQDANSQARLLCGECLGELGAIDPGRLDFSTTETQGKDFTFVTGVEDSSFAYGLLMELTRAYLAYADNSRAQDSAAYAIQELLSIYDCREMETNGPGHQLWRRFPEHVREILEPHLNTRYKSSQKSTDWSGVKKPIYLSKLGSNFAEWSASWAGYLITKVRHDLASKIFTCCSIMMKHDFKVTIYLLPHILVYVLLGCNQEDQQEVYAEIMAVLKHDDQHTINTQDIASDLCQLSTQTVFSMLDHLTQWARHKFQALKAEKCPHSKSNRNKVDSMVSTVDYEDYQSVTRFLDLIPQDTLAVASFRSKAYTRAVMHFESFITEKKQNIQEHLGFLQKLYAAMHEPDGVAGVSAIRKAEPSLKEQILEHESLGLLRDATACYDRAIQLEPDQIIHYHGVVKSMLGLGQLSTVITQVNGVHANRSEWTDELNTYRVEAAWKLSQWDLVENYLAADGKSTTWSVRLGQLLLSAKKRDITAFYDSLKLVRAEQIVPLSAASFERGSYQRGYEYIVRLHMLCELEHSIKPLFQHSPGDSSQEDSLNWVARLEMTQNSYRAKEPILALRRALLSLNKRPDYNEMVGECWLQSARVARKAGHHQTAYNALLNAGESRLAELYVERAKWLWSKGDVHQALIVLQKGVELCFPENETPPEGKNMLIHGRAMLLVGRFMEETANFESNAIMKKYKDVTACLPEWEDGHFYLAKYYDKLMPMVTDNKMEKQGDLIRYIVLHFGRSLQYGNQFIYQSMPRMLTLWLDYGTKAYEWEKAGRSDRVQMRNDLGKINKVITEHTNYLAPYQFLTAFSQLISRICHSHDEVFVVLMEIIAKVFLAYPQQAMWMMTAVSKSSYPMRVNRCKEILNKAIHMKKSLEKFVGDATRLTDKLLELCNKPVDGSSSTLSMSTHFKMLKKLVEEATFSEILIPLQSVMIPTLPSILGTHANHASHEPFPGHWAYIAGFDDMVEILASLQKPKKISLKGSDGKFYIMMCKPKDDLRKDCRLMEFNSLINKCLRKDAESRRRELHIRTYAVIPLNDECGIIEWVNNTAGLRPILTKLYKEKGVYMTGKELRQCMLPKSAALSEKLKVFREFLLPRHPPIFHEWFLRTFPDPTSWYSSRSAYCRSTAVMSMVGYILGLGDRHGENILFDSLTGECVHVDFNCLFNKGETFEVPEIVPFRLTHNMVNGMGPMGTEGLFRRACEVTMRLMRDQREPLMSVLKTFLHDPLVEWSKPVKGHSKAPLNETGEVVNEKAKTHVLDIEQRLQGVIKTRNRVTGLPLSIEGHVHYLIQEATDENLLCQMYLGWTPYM
Sequence of ATR kinase (Q8WXE1 whole entry partner): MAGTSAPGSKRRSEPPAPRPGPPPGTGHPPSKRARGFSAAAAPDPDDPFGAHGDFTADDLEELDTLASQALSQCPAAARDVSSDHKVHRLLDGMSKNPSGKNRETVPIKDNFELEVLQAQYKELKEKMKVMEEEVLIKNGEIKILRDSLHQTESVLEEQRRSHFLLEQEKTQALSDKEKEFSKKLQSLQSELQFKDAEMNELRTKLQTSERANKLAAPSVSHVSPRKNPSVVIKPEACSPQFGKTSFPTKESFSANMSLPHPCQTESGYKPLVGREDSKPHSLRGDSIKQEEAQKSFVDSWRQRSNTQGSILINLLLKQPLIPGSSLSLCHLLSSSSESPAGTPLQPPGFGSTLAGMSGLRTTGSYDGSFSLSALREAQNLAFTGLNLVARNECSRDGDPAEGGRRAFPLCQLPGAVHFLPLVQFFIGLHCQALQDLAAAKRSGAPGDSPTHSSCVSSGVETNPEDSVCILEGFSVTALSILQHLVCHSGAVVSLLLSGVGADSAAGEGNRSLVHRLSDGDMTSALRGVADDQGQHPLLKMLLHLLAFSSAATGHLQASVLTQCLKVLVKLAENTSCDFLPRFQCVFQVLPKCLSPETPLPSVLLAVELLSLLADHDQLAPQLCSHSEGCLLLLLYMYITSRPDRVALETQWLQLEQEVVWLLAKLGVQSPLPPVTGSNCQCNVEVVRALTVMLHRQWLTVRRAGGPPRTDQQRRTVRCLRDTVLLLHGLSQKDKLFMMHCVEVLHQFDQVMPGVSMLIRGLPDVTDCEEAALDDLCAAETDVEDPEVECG

SMILES	IC50 (TMD-8 cells; [3]) [nM]	Human liver microsome (Residual % at 60 min) [1] [%]	other results
C[C@@H]1COCCN1c1cc(N=[S@@](C)(=O)c2ccc(F)cc2)c2cnn(-c3ccn[nH]3)c2n1 (single isomer, unassigned) [Compound 14-A]			IC50 (ATR kinase): < 50 nM
C[C@@H]1COCCN1c1cc(N=[S@@](C)(=O)C2CCCC2)c2cnn(-c3ccn[nH]3)c2n1 (single isomer, unassigned) [Compound 15-A]	≤ 200		IC50 (ATR kinase): < 50 nM
C[C@@H]1COCCN1c1cc(N=[S@](C)(=O)C2CCC(F)(F)CC2)c2cnn(-c3ccn[nH]3)c2n1 (single isomer, unassigned) [Compound 16-A]			IC50 (ATR kinase): < 50 nM
C[C@@H]1COCCN1c1cc(N=S(C)(C)=O)c2cnn(-c3ccn[nH]3)c2n1 [Compound 1]	≤ 200	102.05	
CCS(=O)(CC)=Nc1cc(N2CCOC[C@H]2C)nc2c1cnn2-c1ccn[nH]1 [Compound 2]	≤ 200	85.89	
C[C@@H]1COCCN1c1cc(N=S2(=O)CCC2)c2cnn(-c3ccn[nH]3)c2n1 [Compound 3]	≤ 200	106.47	
C[C@@H]1COCCN1c1cc(N=S2(=O)CCCC2)c2cnn(-c3ccn[nH]3)c2n1 [Compound 4]	≤ 200	96.49	
C[C@@H]1COCCN1c1cc(N=S2(=O)CCCCC2)c2cnn(-c3ccn[nH]3)c2n1 [Compound 5]	≤ 200		
C[C@@H]1COCCN1c1cc(N=S2(=O)CCOCC2)c2cnn(-c3ccn[nH]3)c2n1 [Compound 6]		94.62	
C[C@@H]1COCCN1c1cc(N=[S@](C)(=O)C2CC2)c2cnn(-c3ccn[nH]3)c2n1 [Compound 10-A]		95.39	IC50 (ATR kinase): < 50 nM; IG half-life t1/2 ([2]; intragastric 10 mg/kg): 1.3 h; Area under plasma concentration-time curve AUC0-last [2, 4]: 13943 ng·h/mL; Peak concentration Cmax [2, 4]: 4888 ng/mL; Tissue distribution Vd ([2]; IG 10 mg/kg / IV 1 mg/kg study): 0.68 L/kg; Absolute bioavailability F ([2]; IG 10 mg/kg vs IV 1 mg/kg): 66%
Cc1cc(-n2ncc3c(N=S(C)(C)=O)cc(N4CCOC[C@H]4C)nc32)[nH]n1 [Compound 13]		108.36	IC50 (ATR kinase): < 50 nM
C[C@@H]1COCCN1c1cc(N=[S@@](C)(=O)C2CCCC2)c2cnn(-c3ccn[nH]3)c2n1 [Compound 15-B]	≤ 200		
C[C@@H]1COCCN1c1cc(N=S(C)(=O)C(C)(C)C)c2cnn(-c3ccn[nH]3)c2n1 (some centres unmarked) [Compound 17]	≤ 200		
Cc1cc(-n2ncc3c(N=[S@@](C)(=O)C4CC4)cc(N4CCOC[C@H]4C)nc32)[nH]n1 [Compound 19-A]			IC50 (TMD-8 cells; 72 h incubation): ≤ 200 nM; IC50 (ATR kinase): < 50 nM; IG half-life t1/2 ([2]; intragastric 10 mg/kg): 1.16 h; Area under plasma concentration-time curve AUC0-last [2, 4]: 5403 ng·h/mL; Peak concentration Cmax [2, 4]: 2948 ng/mL; Tissue distribution Vd ([2]; IG 10 mg/kg / IV 1 mg/kg study): 4.58 L/kg; Absolute bioavailability F ([2]; IG 10 mg/kg vs IV 1 mg/kg): 88%
Cc1nn(-c2ccn[nH]2)c2nc(N3CCOC[C@H]3C)cc(N=S(C)(C)=O)c12 [Compound 20]	≤ 200		bioavailability ([2]; mouse, plasma, oral, IG 10 mg/kg vs IV 1 mg/kg, read-out: Absolute bioavailability F): 74%; half-life ([2]; mouse, plasma, po, intragastric 10 mg/kg, read-out: IG half-life t1/2 (converted)): 1.93 h; Vd ([2]; mouse, plasma, IG 10 mg/kg / IV 1 mg/kg study, read-out: Tissue distribution Vd): 1.04 L/kg; AUC(0-t) ([2]; mouse, plasma, IG 10 mg/kg / IV 1 mg/kg study, read-out: Area under plasma concentration-time curve AUC0-last): 14600 ng·h/mL; Cmax ([2]; mouse, plasma, IG 10 mg/kg / IV 1 mg/kg study, read-out: Peak concentration Cmax): 6520 ng/mL
CC(C)Cc1nn(-c2cc[nH]n2)c2nc(N3CCOC[C@H]3C)cc(N=S(C)(C)=O)c12 [Compound 21]	≤ 200		
C[C@@H]1COCCN1c1cc(N=S(C)(C)=O)c2c(C3CC3)nn(-c3ccn[nH]3)c2n1 [Compound 22]	≤ 200		
C[C@@H]1COCCN1c1cc(N=S(C)(C)=O)c2c(C(F)(F)F)nn(-c3ccn[nH]3)c2n1 [Compound 23]	≤ 200		
C[C@@H]1COCCN1c1cc(N=S(C)(C)=O)c2c(CCC(F)(F)F)nn(-c3ccn[nH]3)c2n1 [Compound 24]	≤ 200		
C[C@@H]1COCCN1c1cc(N=S(C)(C)=O)c2c(C(C)(C)C)nn(-c3cc[nH]n3)c2n1 [Compound 25]	≤ 200		
C[C@@H]1COCCN1c1cc(N=S(C)(C)=O)c2c(C#CC3CC3)nn(-c3cc[nH]n3)c2n1 [Compound 26]	≤ 200		
